The test system of assay [1] is core antibody fucosylation (endogenous antibodies). Nature of the assay: Antibody fucosylation in vivo following oral administration, dose study (Example 3), dot blot. Details: species or system Female BALC/c mice. The procedure:
In this study, the effects of oral administration of the fucose analog 2-fluorofucose (SGD-2083) were further examined. Female BALC/c mice were offered […] 2-fluorofucose in their drinking water for 14 days. Mice were immunized with TiterMAX Classic and offered 1, 10 and 100 mM 2-fluorofucose in their drinking water for an additional 7 days. Mice were then terminally bled and serum obtained. Endogenous antibodies were purified by passing the serum over a protein A column
The collected antibodies were evaluated for fucosylation levels by dot blot as follows. Antibodies from untreated and treated animals (0.5 μg each), as well as standards of cAC10 with 0 to 100% fucose (only study 1), were blotted onto a nitrocellulose membrane. The proteins levels were visualized with Ponceau S. The blot was probed with biotinylated AOL lectin and developed with streptavidin HRP and ECL (as described above). Gel loading (visible) and fucose signals (bioluminescence) were measured with an Alpha Innotech camera and quantitated with the machine software.

For assay [2], the system named is P-selectin ligand on Ramos cells. Nature of the assay: Cell surface P-selectin ligand by FACS, P-selectin fusion protein, Ramos. It is filed as cell-based, human. The procedure: 100 μM of each inhibitor was used under standard culture conditions for approximately 1-2 weeks with regular changes of culture medium including fresh inhibitor. After the incubation period, the cells were analyzed by FACS using four different detection reagents: biotinylated-Lens culimaris agglutinin-A (LCA), anti-Lewis' antibody (anti-SSEA1), an anti-Lewis^y antibody (cBR96), and a Recombinant Human P-Selectin/CD62P/Fc Fusion protein. The procedure involved washing of the cells with FACS buffer (PBS+10% bovine serum albumin+0.02% sodium azide) 3 times followed by incubation with the primary detection reagent for 1 hr at 4° C., followed by 3 washes with FACS buffer and then incubation with the secondary detection reagent for 1 hr at 4° C. The cells were finally washed with FACS buffer 3 times and resuspended in FACS buffer and examined using a BD FACScan instrument. […] The P-selectin fusion protein detects P-selectin ligand present on the surface of cells, an interaction which involves the sialyl Lewis' epitope present of the P-selectin ligand.
(In general: A flow cytometer gives signals particle by particle.)

The test system of assay [3] is E-selectin binding to neutrophils. Nature of the assay: E-selectin binding to neutrophils following oral dosing, flow cytometry. It counts as in vivo, Female Balb/c mice. As for the experimental part: The effects of a fucose analog on leukocytosis and E-selectin binding were eamined in mice. Female Balb/c mice were given oral 2-fluorofucose (SGD-2083) in the drinking water or left untreated. Mice were bled prior to dosing and then weekly for three weeks to assess circulating cell numbers and their ability to bind E-selectin. In one study, 2-fluorofucose was formulated at 1 mM, 10 mM or 100 mM in the drinking water (n=3 per group). At day 14, mice were treated with TiterMAX® Classic adjuvant (Sigma) to stimulate polyclonal, antigen non-specific antibody production by B cells, and remained on the 2-fluorofucose-containing water through day 21. In a second study, mice were given oral 2-fluorofucose formulated at 10 mM and 100 mM in the drinking water for three weeks without any other treatments (n=6). On day 21, a pool of lymph nodes (axillary, brachial, superficial inguinal, and mesenteric) from each of three animals was assessed in addition to blood. Lymph nodes were homogenized into single cell suspensions, and total cell numbers were determined by counting on a hemcytometer, using Trypan Blue for dead cell exclusion. To determine total white cell numbers/μL blood, samples of blood from individual animals were counted on a hemacytometer, using Turk's solution (0.01% gentian violet in 3% acetic acid) to exclude red blood cells (RBCs). RBCs were eliminated from the remainder of the blood by osmotic lysis for flow cytometric analysis. Cells were incubated with anti-Gr-1-FITC antibodies (BD Biosciences) to identify neutrophils, and a recombinant E-selectin-human Fc fusion protein (R&D Systems). Cells were washed and then incubated with a PE-labeled goat anti-human IgG-Fc secondary antibody (Jackson Immunoresearch) to detect bound E-selectin. Samples were collected on a FACSCalibur flow cytometer and analyzed using CellQuest software. The percentage of Gr-1+ cells was determined and absolute number of neutrophils was calculated using the total white cell number from the hemacytometer count. […] The geometric mean of the E-selectin fluorescent signal was determined from the histogram.

Molecules are shown by their SMILES.

Consider `C[C@H](O)[C@@H](O)[C@@H](O)[C@H](F)C=O` [SGD-2083, 2-fluoro-2-deoxy fucose], for which the antibody fucosylation levels result in assay [1] (1 mM in drinking water) was “highest in the untreated control and 1 mM 2-fluorofucose groups”; in assay [1] (intermediate concentration (10 mM) in drinking water, compared with 100 mM), “nearly as depleted of fucose as the high concentration”. The “fucosylation levels of antibodies” value in assay [1] (1, 10 and 100 mM in drinking water, 21 days) is reported as “dose-dependent decrease”. Also, in assay [2], the “signal for P-selectin ligand (increase upon treatment)” value is listed as “not observed”. Further, the “effect on E-selectin binding to neutrophils” value is “little effect” in assay [3] (1 mM); “increasing effects” in assay [3] (10 mM and 100 mM). Moreover, the “E-selectin binding to neutrophils” value in assay [3] (oral in drinking water, dose-dependent) is “decreased”.

The values above are taken from patent US9504702B2, “Methods of inhibition of protein fucosylation in vivo using fucose analogs” (Seattle Genetics, Inc., priority 2010, dated 2016).
